The nature of series [1]: Solution stability assay (pH 1.0 and pH 7.4, 37° C.). It is filed as physicochemical. As for the experimental part: Acetonitrile Stock Solution: Prepare an Acetonitrile Stock Solution of the prodrug by dissolving 1.5-2.0 mg of accurately weighted compound in 5.0 mL of acetonitrile in 5 mL volumetric flask.
pH 7.4 Buffer Working Solution: Prepare a pH 7.4 Buffer working Solution of drug by adding 1.5 mL of the Acetonitrile Stock Solution to 3.5 mL of stability buffer in a 20 mL scintillation vial, mix very well. Using a 3 mL syringe withdraw ˜3 mL of solution and filter using the Gelman 0.45 μm syringe filter into a clean 1.5 mL LC vial. This filtered solution will be used to evaluate the prodrug degradation throughout the course of the study. Target concentration: 90-120 μg/mL (70% Aqueous: 30% Acetonitrile)
pH 1.0 Acidic Working Solution: Prepare a pH1.0 Working Solution of drug by adding 1.5 mL of the Acetonitrile Stock Solution to 3.5 mL of stability buffer in a 20 mL scintillation vial, mix very well. Using a 3 mL syringe withdraw ˜3 mL of solution and filter using the Gelman 0.45 μm syringe filter into a clean 1.5 mL LC vial. This filtered solution will be used to evaluate the prodrug degradation throughout the course of the study. Target concentration: 90-120 μg/mL (70% Aqueous: 30% Acetonitrile)
Following the sample preparation procedure described above a single sample (n=1) is prepared for each pH condition. The samples were then placed in an HPLC autosampler maintained at 37° C. and samples were analyzed over a 24 hr period. Prodrug remaining (%) is reported relative to the initial peak area (t=0 h). In cases where a conversion to parent half-life could be calculated, a t1/2 was generated. Confirmation of the conversion to parent from the prodrug was obtained by LCMS and HPLC analysis of the final timepoint samples.
Typical LC parameters are shown below:
• HPLC System: HP1100 Series, Hewlett Packard., Heated autosampler • Analytical column. Synergi 4u Hydro C18, 4.6 mm×5.0 cm, Phenomenex • Column temperature: 40° C. • Autosampler temp: 37° C. • Flow rate: 1.0 mL/min • Injection Volume: 10 μL • Mobile Phase: A: Acetonitrile • B: 0.1% Phosphoric acid in water • Run Time: 14.0 minutes • Typical LCMS parameters are shown below: • LC-MS System: Surveyor HPLC system, ThermoFinnigan LCQ Deca XP Max (Ion trap) • Analytical column. Synergi 4u Hydro C18, 4.6 mm×5.0 cm, Phenomenex • Column temperature: 40° C. • Autosampler temp: 22° C. • Flow rate: 1.0 mL/min • Injection Volume: 5 […] • Mobile Phase: A: 95% Acetonitrile/5% 20 mM Ammonium Acetate • B: 5% Acetonitrile/95% 20 mM Ammonium Acetate • LCQ Parameters • Sheath Flow Rate: 81.64 • Aux/Sweep Flow Rate: 19.01 • Current (uA): 10.89 • Voltage (kV): 5.00 • Capillary©: 348.10 • Capillary Voltage (V): 30.44

Series [2] can be described thus: Thermodynamic equilibrium aqueous solubility assay. Particulars: thermodynamic from solid; for solubility thermodynamic: aqueous solvent, read-out: Aq. sol., mg/mL (pH). It is filed as physicochemical. As for the experimental part: Thermodynamic Equilibrium Aqueous Solubility Assay
The calibration standard is prepared by accurately weighing 0.5-0.7 mg of sample in 5 ml of methanol. If the material is not fully soluble in methanol, other solvents such as DMSO or mixed solvents will be used.
*The calibration standard is typically prepared fresh immediately before the start of the assay. A two-point calibration curve should be used to determine the concentration of the final solution. A serial dilution is performed on the standard solution.
The final saturated solution is prepared by adding 1.0 ml of the appropriate aqueous solvent to the remaining portion of material (˜1 mg/l ml) into a 1 dram vial. The solution is sonicated and vortexed for ˜30 seconds. The sample solution is placed on an orbiter that continually agitates the sample solutions for 15-24 hours at room temperature. The final saturated solution is then transferred to a 1.5 ml Eppendorf tube and centrifuged for ˜2 min. at 10000 rpms. The supernatant from the saturated solution is transferred to a glass HPLC vial without filtering since the 1.5 mL volume is insufficient to saturate a syringe filter. This sample preparation procedure nullifies the effects of non-specific binding to the filtering apparatus.
The standards and sample are analyzed by HPLC using either UV/Vis diode array or variable wavelength detection. Typical quantitation wavelengths are 210 or 254 nm; detection wavelength can be individually customized to optimize sensitivity. In addition to UV detection, mass spectrometry detection is recommended if available in order to confirm the identity of the HPLC-UV peak of interest.
Dilutions of aqueous test solutions are performed if HPLC-UV peak is beyond the linear portion of the standard calibration curve. Typical dilutions include 100 ul/900 ul (×10) or 500 ul/500 ul (2×), as required.
HPLC grade solvents are employed.

[3] abbreviates: pH 1, conversion of the prodrug to compound 1, 37° C., read-out: Aq. Stability half-life (pH 1/7.4) Hrs (converted).
The mark [4] stands for this setting: pH 7.4, conversion of the prodrug to compound 1, 37° C., read-out: Aq. Stability half-life (pH 1/7.4) Hrs (converted).

The structures appear in SMILES notation. In brackets after ≈: the same amount, converted by molar mass. Like-named read-outs stand apart in the source and are kept apart here. Some results are limits rather than exact numbers.

Data on 19 molecules can be found in patent US8410139B2, “Prodrugs of a piperidinyl derivative as modulators of chemokine receptor activity” (Bristol-Myers Squibb Company, priority 2009, dated 2013).

The term solubility denotes the dissolved amount per volume that the medium holds.

For `CC(C)[C@@H](NC(=O)NCC(C)(C)O)C(=O)N1CC[C@](O)(c2ccc(Cl)cc2)C(C)(C)C1` [Compound 1, 1-((R)-1-((S)-4-(4-chlorophenyl)-4-hydroxy-3,3-dimethylpiperidin-1-yl)-3-methyl-1-oxobutan-2-yl)-3-(2-hydroxy-2-methylpropyl)urea], the half-life in series [1] (pH 1, parent compound, read-out: chemical stability half-life (converted)) is 30 h; in series [1] (pH 7.4, parent compound, read-out: chemical stability half-life (converted)), greater than 22 h. Moreover, the solubility in series [2] (aqueous buffer, pH 6.6 buffer) was found to be 47 µg/mL (≈ 104 µM).

Consider `CC(C)[C@@H](NC(=O)NCC(C)(C)OC(=O)CN)C(=O)N1CC[C@](O)(c2ccc(Cl)cc2)C(C)(C)C1` [Example 1, 1-(3-((R)-1-((S)-4-(4-chlorophenyl)-4-hydroxy-3,3-dimethylpiperidin-1-yl)-3-methyl-1-oxobutan-2-yl)ureido)-2-methylpropan-2-yl 2-aminoacetate], for which the half-life in series [1] (setting [3]) was 159 h; in series [1] (setting [4]), 86 h. Besides, the solubility thermodynamic in series [2] (pH 6.5, aqueous buffer) stood at 1.1 mg/mL (≈ 2150 µM).

On to `CC(C)[C@H](N)C(=O)OC(C)(C)CNC(=O)N[C@@H](C(=O)N1CC[C@](O)(c2ccc(Cl)cc2)C(C)(C)C1)C(C)C` [Example 3, (S)-1-(3-((R)-1-((S)-4-(4-chlorophenyl)-4-hydroxy-3,3-dimethylpiperidin-1-yl)-3-methyl-1-oxobutan-2-yl)ureido)-2-methylpropan-2-yl 2-amino-3-methylbutanoate], for which the half-life in series [1] (setting [3]) was 237 h; in series [1] (setting [4]), greater than 22 h. For the same molecule, the solubility thermodynamic in series [2] (pH 6.5, aqueous buffer) was greater than 0.6 mg/mL.

Consider `CC(=O)OC(C)(C)CNC(=O)N[C@@H](C(=O)N1CC[C@](O)(c2ccc(Cl)cc2)C(C)(C)C1)C(C)C` [Example 4, 1-(3-((R)-1-((S)-4-(4-chlorophenyl)-4-hydroxy-3,3-dimethylpiperidin-1-yl)-3-methyl-1-oxobutan-2-yl)ureido)-2-methylpropan-2-yl acetate], for which the half-life in series [1] (setting [3]) was 29 h; in series [1] (setting [4]), greater than 22 h. The solubility thermodynamic in series [2] (pH 6.5, aqueous buffer) was 0.03 mg/mL.

Regarding `CCC(=O)OC(C)(C)CNC(=O)N[C@@H](C(=O)N1CC[C@](O)(c2ccc(Cl)cc2)C(C)(C)C1)C(C)C` [Example 5, 1-(3-((R)-1-((S)-4-(4-chlorophenyl)-4-hydroxy-3,3-dimethylpiperidin-1-yl)-3-methyl-1-oxobutan-2-yl)ureido)-2-methylpropan-2-yl propionate], the half-life is 25 h in series [1] (setting [3]) and greater than 22 h in series [1] (setting [4]). For the same molecule, the solubility thermodynamic in series [2] (pH 6.5, aqueous buffer) worked out at 0.04 mg/mL (≈ 78.4 µM).

Turning to `CC(C)[C@@H](NC(=O)NCC(C)(C)OC(=O)OCOC(=O)/C=C/C(=O)O)C(=O)N1CC[C@](O)(c2ccc(Cl)cc2)C(C)(C)C1` [Example 6, (R,E)-3-((S)-4-(4-chlorophenyl)-4-hydroxy-3,3-dimethylpiperidine-1-carbonyl)-2,8,8-trimethyl-5,10,14-trioxo-9,11,13-trioxa-4,6-diazaheptadec-15-en-17-oic acid], the half-life is 61 h in series [1] (setting [3]) and 49 h in series [1] (setting [4]). In addition, the solubility thermodynamic in series [2] (pH 6.5, aqueous buffer) is 2.2 mg/mL (≈ 3510 µM).

As for `CC(C)[C@@H](NC(=O)NCC(C)(C)OC(=O)OCCN1CCOCC1)C(=O)N1CC[C@](O)(c2ccc(Cl)cc2)C(C)(C)C1` [Example 7, 1-(3-((R)-1-((S)-4-(4-chlorophenyl)-4-hydroxy-3,3-dimethylpiperidin-1-yl)-3-methyl-1-oxobutan-2-yl)ureido)-2-methylpropan-2-yl 2-morpholinoethyl carbonate], the half-life in series [1] (setting [3]) was 85 h; in series [1] (setting [4]), 131 h. Besides, the solubility thermodynamic in series [2] (pH 6.5, aqueous buffer) came to 0.34 mg/mL (≈ 556 µM).

Regarding `CC(C)[C@@H](NC(=O)NCC(C)(C)OC(=O)OCOC(=O)Cc1ccc(OP(=O)(O)O)cc1)C(=O)N1CC[C@](O)(c2ccc(Cl)cc2)C(C)(C)C1` [Example 9], the half-life in series [1] (setting [3]) is 25 h; in series [1] (setting [4]), 72 h. Besides, the solubility thermodynamic in series [2] (pH 6.5, aqueous buffer) turned out to be 1.6 mg/mL (≈ 2160 µM).

Consider `CC(C)[C@@H](NC(=O)NCC(C)(C)OCOP(=O)(O)O)C(=O)N1CC[C@](O)(c2ccc(Cl)cc2)C(C)(C)C1` [Example 10], for which the half-life in series [1] (setting [3]) is less than 1 h.

As for `CC(C)[C@@H](NC(=O)NCC(C)(C)OC(=O)OCOP(=O)(O)O)C(=O)N1CC[C@](O)(c2ccc(Cl)cc2)C(C)(C)C1` [Example 11], the figures for the half-life in series [1] (setting [3]) and in series [1] (setting [4]) were 107 h and 0.3 h, respectively.

In the case of `CC(C)[C@@H](N)C(=O)OCOC(=O)OC(C)(C)CNC(=O)N[C@@H](C(=O)N1CC[C@](O)(c2ccc(Cl)cc2)C(C)(C)C1)C(C)C` [Example 12], the half-life in series [1] (setting [3]) was 82 h; in series [1] (setting [4]), 0.3 h.

With `CC(C)[C@@H](NC(=O)NCC(C)(C)OC(=O)OCOC(=O)C(C)(C)N)C(=O)N1CC[C@](O)(c2ccc(Cl)cc2)C(C)(C)C1` [Example 13], the half-life in series [1] (setting [3]) was 10.1 h; in series [1] (setting [4]), 0.25 h.

Consider `CC(C)[C@@H](NC(=O)NCC(C)(C)OC(=O)OCOC(=O)C1(N)CC1)C(=O)N1CC[C@](O)(c2ccc(Cl)cc2)C(C)(C)C1` [Example 14], for which the half-life is 49 h in series [1] (setting [3]) and 107 h in series [1] (setting [4]). In addition, the solubility thermodynamic in series [2] (pH 7.4, aqueous buffer) came out at 0.18 mg/mL (≈ 295 µM).

With `CC(=O)OCOC(=O)OC(C)(C)CNC(=O)N[C@@H](C(=O)N1CC[C@](O)(c2ccc(Cl)cc2)C(C)(C)C1)C(C)C` [Example 15], the half-life in series [1] (setting [3]) and in series [1] (setting [4]) was greater than 22 h in each case. For the same molecule, in series [2] (pH 7.4, aqueous buffer), the solubility thermodynamic amounted to 0.022 mg/mL (≈ 38.6 µM).

Turning to `CCOC(=O)CCC(=O)OC(C)(C)CNC(=O)N[C@@H](C(=O)N1CC[C@](O)(c2ccc(Cl)cc2)C(C)(C)C1)C(C)C` [Example 17], the half-life in series [1] (setting [3]) and in series [1] (setting [4]) was greater than 22 h in each case. In series [2] (pH 7.4, aqueous buffer), the solubility thermodynamic was less than 0.007 mg/mL.

For the molecule `COC(=O)CCC(=O)OC(C)(C)CNC(=O)N[C@@H](C(=O)N1CC[C@](O)(c2ccc(Cl)cc2)C(C)(C)C1)C(C)C` [Example 18], the half-life in series [1] (setting [3]) and in series [1] (setting [4]) was greater than 22 h in each case. Besides, the solubility thermodynamic in series [2] (pH 7.4, aqueous buffer) amounted to 0.059 mg/mL (≈ 104 µM).

Turning to `CC(C)[C@@H](NC(=O)NCC(C)(C)OC(=O)CCC(=O)O)C(=O)N1CC[C@](O)(c2ccc(Cl)cc2)C(C)(C)C1` [Example 19], the half-life in series [1] (setting [3]) and in series [1] (setting [4]) was greater than 22 h throughout. In addition, the solubility thermodynamic in series [2] (pH 6.5, aqueous buffer) stood at 0.08 mg/mL (≈ 144 µM).

Take `CC(C)[C@@H](NC(=O)NCC(C)(C)OC(=O)CCCC(=O)O)C(=O)N1CC[C@](O)(c2ccc(Cl)cc2)C(C)(C)C1` [Example 20]: the half-life in series [1] (setting [3]) and in series [1] (setting [4]) was greater than 22 h each time. In addition, in series [2] (pH 6.5, aqueous buffer), the solubility thermodynamic is 0.317 mg/mL (≈ 558 µM).

`CC(C)[C@@H](NC(=O)NCC(C)(C)OC(=O)CS(=O)(=O)O)C(=O)N1CC[C@](O)(c2ccc(Cl)cc2)C(C)(C)C1` [Example 21]: the half-life in series [1] (setting [3]) and in series [1] (setting [4]) was greater than 22 h throughout. Also, the solubility thermodynamic in series [2] (pH 7.4, aqueous buffer) is greater than 16 mg/mL.
